This note sets out measurements from ChEMBL document CHEMBL3272187, “Synthesis of N-hydroxyacetaminophen, a postulated toxic metabolite of acetaminophen, and its phenolic sulfate conjugate” (J Med Chem, 1978).

Holding throughout (assay type): physicochemical
Series [1] in a line: Aqueous stability of the compound in 100 mM Na2HPO4 buffer assessed as half life at 2 mM at pH 7.2 at 37 degC by ferric chloride assay.
The nature of series [2]: Aqueous stability of the compound in 100 mM Na2HPO4 buffer assessed as half life at 2 mM at pH 6.6 at 37 degC by ferric chloride assay.
A short description of series [3]: Aqueous stability of the compound in 100 mM NaOH buffer at 2 mM at pH 12.7 at 37 degC by ferric chloride assay. The conditions noted are these: pH 12.7, 2000 µM.
The nature of series [4]: Aqueous stability of the compound in 100 mM HCl buffer assessed as half life at 2 mM at pH 1.5 at 37 degC by ferric chloride assay.
Series [5] is described as follows: Aqueous stability of the compound in 100 mM Na2HPO4 buffer assessed as half life at 2 mM at pH 8.0 at 37 degC by ferric chloride assay.
Series [6] is described as follows: Aqueous stability of the compound in 100 mM Na2HPO4 buffer assessed as half life at 2 mM at pH 7.0 at 37 degC by ferric chloride assay.
Series [7] in a line: Aqueous stability of the compound in 100 mM Na2HPO4 buffer assessed as half life at 2 mM at pH 8.5 at 37 degC by ferric chloride assay.

The structures appear in SMILES notation.

Regarding `CC(=O)N(O)c1ccc(O)cc1`, the half-life – broadly, the time in which the quantity being followed falls by half – at 2000 µM in series [1] stood at 21 min; in series [2], 150 min; in series [4] it was 1100 min; in series [5], 9.8 min; in series [6], 66 min. The Stability result in series [3] is given as “Stable”.

Consider `CC(=O)N(O)c1ccc(OS(=O)(=O)[O-])cc1.[K+]`, for which the Stability result in series [3] was “Stable”. Also, the half-life at 2000 µM came to 910 min in series [4] and 9.03 days in series [7].
